The values that follow come from US20060128662A1, “Novel compounds for treatment of obesity” (Novo Nordisk A/S, priority 2003, published 2006).

Molecules are shown by their SMILES. Some results are limits rather than exact numbers.

For this test, the system named is FSK-4 cells. Description: Assay (I): Glucose utilisation in a human epithelia cell line (FSK4 cells), D-(6-3H(N))-glucose. The test is classed as cell-based. Particulars: 24 hours incubation, Hill equation, read-out: GlucosFSK4 EC50. On the procedure: Assay (I): Glucose Utilisation in a Human Epithelia Cell Line (FSK4 cells)
The ^3H-proton will first be released in the TCA cyclus and transported to the respiratory chain where it will be incorporated into water. The water is thereafter separated from the D-(6-^3H(N))-glucose by evaporation.
FSK-4 cells obtained from ATCC (Maryland, USA), are cultured in growth medium (McCoy's medium with the following addition 100 units/ml penicillin and streptomycin and 10% FCS (fetal calf serum)) at 37° C. and 5% CO2.
The cells are then incubated for another 24 hours at 37° C. and 5% CO2.
The half maximal concentration (EC50) and maximal efficacy (Emax) are calculated using the Hill equation in GraphPad Prism 3.0 (GraphPad software, Inc.). […] From the percentage increase in glucose utilisation the linear slope is calculated using the Michaelis-Menten equation.
By EC50 is commonly meant the concentration that produces a half-maximal response. Take `CC(C)(C)c1cc(/C=C(\C#N)S(=O)(=O)c2ccccn2)cc(C(C)(C)C)c1O` [Example 3, (E)-3-(3,5-Di-tert!-butyl-4-hydroxy-phenyl)-2-(pyridine-2-sulfonyl)-acrylonitrile]: the EC50 came to 9000 nM.

In the case of `N#C/C(=C\c1ccc(O)c([N+](=O)[O-])c1)S(=O)(=O)c1ccc(Cl)cc1` [Example 4, (E)-2-(4-Chloro-benzenesulfonyl)-3-(4-hydroxy-3-nitro-phenyl)-acrylonitrile], the EC50 is greater than 10000 nM.

`Cn1ccnc1S(=O)(=O)/C(C#N)=C/c1cc(C(C)(C)C)c(O)c(C(C)(C)C)c1` [Example 6, (E)-3-(3,5-Di-tert-butyl-4-hydroxy-phenyl)-2-(1-methyl-1H-imidazole-2-sulfonyl)-acrylonitrile]: the EC50 worked out at 8400 nM.

As to `C/C(=C(/C#N)S(=O)(=O)c1ccc(Cl)cc1)c1cc(C(C)(C)C)c(O)c(C(C)(C)C)c1` [Example 7, (E/Z)-2-(4-Chloro-benzenesulfonyl)-3-(3,5-di-tert-butyl-4-hydroxy-phenyl)-but-2-enenitrile], the EC50 was determined as 10000 nM.

As to `CC(C)(C)c1cc(/C=C(\C#N)S(=O)(=O)c2ccc([N+](=O)[O-])cc2)cc(C(C)(C)C)c1O` [Example 9, (E)-3-(3,5-Di-tert-butyl-4-hydroxy-phenyl)-2-(4-nitro-benzenesulfonyl)-acrylonitrile], the EC50 was 1400 nM.

Regarding `CC(C)(C)c1cc(/C=C(\C#N)S(=O)(=O)c2ccc(OC(F)(F)F)cc2)cc(C(C)(C)C)c1O` [Example 11, (E)-3-(3,5-Di-tert-butyl-4-hydroxy-phenyl)-2-(4-trifluoromethoxy-benzenesulfonyl)-acrylonitrile], the EC50 turned out to be 2200 nM.

As to `CC(C)(C)c1cc(/C=C(\C#N)S(=O)(=O)c2ccc(Cl)cc2)cc([N+](=O)[O-])c1O` [Example 12, (E)-3-(3-tert-Butyl-4-hydroxy-5-nitro-phenyl)-2-(4-chloro-benzenesulfonyl)-acrylonitrile], the EC50 was found to be 6000 nM.

Consider `COCCN(CCOC)C(=O)c1ccc(S(=O)(=O)/C(C#N)=C/c2cc(C(C)(C)C)c(O)c(C(C)(C)C)c2)cc1` [Example 13], for which the EC50 is 4000 nM.

For the molecule `CN(C)C(=O)c1ccc(S(=O)(=O)/C(C#N)=C/c2cc(C(C)(C)C)c(O)c(C(C)(C)C)c2)cc1` [Example 14], the EC50 was 2300 nM.

Turning to `CC(O)CN(CC(C)O)C(=O)c1ccc(S(=O)(=O)/C(C#N)=C/c2cc(C(C)(C)C)c(O)c(C(C)(C)C)c2)cc1` (stereo not drawn) [Example 15], the EC50 is 10000 nM.

Turning to `CN1CCN(C(=O)c2ccc(S(=O)(=O)/C(C#N)=C/c3cc(C(C)(C)C)c(O)c(C(C)(C)C)c3)cc2)CC1` [Example 16, (E)-3-(3,5-Di-tert-butyl-4-hydroxy-phenyl)-2-[4-(4-methyl-piperazine-1-carbonyl)-benzenesulfonyl]-acrylonitrile], the EC50 was determined as 3200 nM.

Consider `CC(C)(C)c1cc(/C=C(\C#N)S(=O)(=O)c2ccc(C(=O)NCCO)cc2)cc(C(C)(C)C)c1O` [Example 17], for which the EC50 amounted to 7400 nM.

For the molecule `CC1CN(C(=O)c2ccc(S(=O)(=O)/C(C#N)=C/c3cc(C(C)(C)C)c(O)c(C(C)(C)C)c3)cc2)CC(C)O1` (stereo not drawn) [Example 18, (E)-3-(3,5-Di-tert-butyl-4-hydroxy-phenyl)-2-[4-(2,6-dimethyl-morpholine-4-carbonyl)-benzenesulfonyl]-acrylonitrile], the EC50 worked out at 1700 nM.

Consider `CC(C)(C)c1cc(/C=C(\C#N)S(=O)(=O)c2ccc(C(=O)N3CCOCC3)cc2)cc(C(C)(C)C)c1O` [Example 19, (E)-3-(3,5-Di-tert-butyl-4-hydroxy-phenyl)-2-[4-(morpholine-4-carbonyl)-benzenesulfonyl]-acrylonitrile], for which the EC50 was determined as 5100 nM.

Consider `CC(C)(C)c1cc(/C=C(\C#N)S(=O)(=O)c2ccc(N)cc2)cc(C(C)(C)C)c1O` [Example 20, (E)-2-(4-Amino-benzenesulfonyl)-3-(3,5-di-tert-butyl-4-hydroxy-phenyl)-acrylonitrile], for which the EC50 stood at 2800 nM.

Take `CC(C)(C)c1cc(/C=C(\C#N)S(=O)(=O)/C(C#N)=C/c2cc(C(C)(C)C)c(O)c(C(C)(C)C)c2)cc(C(C)(C)C)c1O` [Example 22]: the EC50 worked out at 400 nM.

With `CC(C)(C)c1cc(/C=C(\C#N)S(=O)(=O)c2cccs2)cc(C(C)(C)C)c1O` [Example 23, (E)-3-(3,5-Di-tert-butyl-4-hydroxy-phenyl)-2-(thiophene-2-sulfonyl)-acrylonitrile], the EC50 was 1200 nM.

With `CC(C)(C)c1cc(/C=C(\C#N)S(=O)(=O)Cc2ccc(Cl)cc2)cc(C(C)(C)C)c1O` [Example 24, (E)-2-(4-Chloro-phenylmethanesulfonyl)-3-(3,5-di-tert-butyl-4-hydroxy-phenyl)-acrylonitrile], the EC50 stood at 700 nM.

As for `CC(C)(C)c1cc(/C=C(\C#N)S(=O)(=O)c2ccc(C(=O)N(CCO)CCO)cc2)cc(C(C)(C)C)c1O` [Example 26], the EC50 came out at 3700 nM.

For `CC1COCC(C)N1C(=O)c1ccc(S(=O)(=O)/C(C#N)=C/c2cc(C(C)(C)C)c(O)c(C(C)(C)C)c2)cc1` (stereo not drawn) [Example 27, 3-(3,5-Di-tert-butyl-4-hydroxy-phenyl)-2-[4-(3,5-dimethyl-morpholine-4-carbonyl)-benzenesulfonyl]-acrylonitrile], the EC50 stood at 3500 nM.

As for `CC(C)(C)c1ccc(S(=O)(=O)/C(C#N)=C/c2cc(C(C)(C)C)c(O)c(C(C)(C)C)c2)cc1` [Example 29, 2-(4-tert-Butyl-benzenesulfonyl)-3-(3,5-di-tert-butyl-4-hydroxy-phenyl)-acrylonitrile], the EC50 worked out at 2900 nM.

Turning to `CC(C)(C)c1cc(/C=C(\C#N)S(=O)(=O)c2cccc3ccccc23)cc(C(C)(C)C)c1O` [Example 30, 3-(3,5-Di-tert-butyl-4-hydroxy-phenyl)-2-(naphthalene-1-sulfonyl)-acrylonitrile], the EC50 turned out to be 1000 nM.

In the case of `CC(C)(C)c1cc(/C=C(\C#N)S(=O)(=O)Cc2ccco2)cc(C(C)(C)C)c1O` [Example 31, 3-(3,5-Di-tert-butyl-4-hydroxy-phenyl)-2-(furan-2-ylmethanesulfonyl)-acrylonitrile], the EC50 is 2000 nM.

As to `Cc1ccc(S(=O)(=O)/C(C#N)=C/c2cc(C(C)(C)C)c(O)c(C(C)(C)C)c2)cc1` [Example 33, 3-(3,5-Di-tert-butyl-4-hydroxy-phenyl)-2-(toluene-4-sulfonyl)-acrylonitrile], the EC50 was 1100 nM.

Regarding `CC(C)c1ccc(S(=O)(=O)/C(C#N)=C/c2cc(C(C)(C)C)c(O)c(C(C)(C)C)c2)cc1` [Example 34, 3-(3,5-Di-tert-butyl-4-hydroxy-phenyl)-2-(4-isopropyl-benzenesulfonyl)-acrylonitrile], the EC50 was found to be 2300 nM.

On to `CC(C)(C)c1cc(C=C(C#N)S(=O)(=O)c2cc(C(C)(C)C)c(O)c(C(C)(C)C)c2)cc(C(C)(C)C)c1O` [Example 35, 2-(3,5-Di-tert-butyl-4-hydroxy-benzenesulfonyl)-3-(3,5-di-tert-butyl-4-hydroxy-phenyl)-acrylonitrile], for which the EC50 was determined as 3300 nM.

Turning to `CC(C)(C)c1cc(/C=C(\C#N)S(=O)(=O)c2ccc(S(C)(=O)=O)cc2)cc(C(C)(C)C)c1O` [Example 38, 3-(3,5-Di-tert-butyl-4-hydroxy-phenyl)-2-(4-methanesulfonyl-benzenesulfonyl)-acrylonitrile], the EC50 was 700 nM.

Regarding `CC(C)(C)c1cc(/C=C(\C#N)S(=O)(=O)c2cccc(OC(F)(F)F)c2)cc(C(C)(C)C)c1O` [Example 39, 3-(3,5-Di-tert-butyl-4-hydroxy-phenyl)-2-(3-trifluoromethoxy-benzenesulfonyl)-acrylonitrile], the EC50 is 500 nM.

As for `CC(C)(C)c1cc(/C=C(\C#N)S(=O)(=O)c2ccccc2OC(F)(F)F)cc(C(C)(C)C)c1O` [Example 40, 3-(3,5-Di-tert-butyl-4-hydroxy-phenyl)-2-(2-trifluoromethoxy-benzenesulfonyl)-acrylonitrile], the EC50 was found to be 600 nM.

Regarding `CC(C)(C)c1cc(/C=C(\C#N)S(=O)(=O)c2ccc(Cl)cn2)cc(C(C)(C)C)c1O` [Example 41, 2-(5-Chloro-pyridine-2-sulfonyl)-3-(3,5-di-tert-butyl-4-hydroxy-phenyl)-acrylonitrile], the EC50 is 900 nM.

On to `CC(C)(C)c1cc(/C=C(\C#N)S(=O)(=O)c2ccccc2C(=O)O)cc(C(C)(C)C)c1O` [Example 42], for which the EC50 was found to be 9000 nM.

Take `CC(C)(C)c1cc(/C=C(\C#N)S(=O)(=O)c2ccccc2C(=O)N2CCOCC2)cc(C(C)(C)C)c1O` [Example 44, 3-(3,5-Di-tert-butyl-4-hydroxy-phenyl)-2-[2-(morpholine-4-carbonyl)-benzenesulfonyl]-acrylonitrile]: the half-maximal effective concentration (EC50) was determined as 3000 nM.

With `CC(C)(C)c1cc(/C=C(\C#N)S(=O)(=O)c2cccc(C(=O)N3CCOCC3)c2)cc(C(C)(C)C)c1O` [Example 45, 3-(3,5-Di-tert-butyl-4-hydroxy-phenyl)-2-[3-(morpholine-4-carbonyl)-benzenesulfonyl]-acrylonitrile], the EC50 turned out to be 3000 nM.

As to `COc1ccc(S(=O)(=O)/C(C#N)=C/c2cc(C(C)(C)C)c(O)c(C(C)(C)C)c2)cc1` [Example 46, 3-(3,5-Di-tert-butyl-4-hydroxy-phenyl)-2-(4-methoxy-benzenesulfonyl)-acrylonitrile], the EC50 was 1000 nM.

Take `COc1cccc(S(=O)(=O)/C(C#N)=C/c2cc(C(C)(C)C)c(O)c(C(C)(C)C)c2)c1` [Example 47, 3-(3,5-Di-tert-butyl-4-hydroxy-phenyl)-2-(3-methoxy-benzenesulfonyl)-acrylonitrile]: the EC50 was 800 nM.

As to `COc1ccc(S(=O)(=O)/C(C#N)=C/c2cc(C(C)(C)C)c(O)c(C(C)(C)C)c2)cc1OC` [Example 48, 3-(3,5-Di-tert-butyl-4-hydroxy-phenyl)-2-(3,4-dimethoxy-benzenesulfonyl)-acrylonitrile], the EC50 was found to be 1500 nM.
